# According to PubChem BioAssay (NCI):
#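 Values below derive from 48-hour exposures of cells grown in 96-well plates, with endpoints linearly interpolated between the two concentrations bracketing the appropriate inhibition level. The concentration for full growth arrest is given as TGI.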
# Assays:
# Test in all cases: NCI-60 cell line screen, 48 h
# SR leukemia = test system: SR leukemia
# OVCAR-8 ovarian = test system: OVCAR-8 ovarian
# HOP-62 NSCLC = test system: HOP-62 NSCLC
# UACC-257 melanoma = test system: UACC-257 melanoma
# PC-3 prostate = test system: PC-3 prostate
# A498 renal = test system: A498 renal
# M14 melanoma = test system: M14 melanoma
# MDA-MB-435 = test system: MDA-MB-435
# NCI-H23 lung = test system: NCI-H23 lung
# MALME-3M melanoma = test system: MALME-3M melanoma
structure (smiles),measurement,setting,value
Oc1ccc(Cn2c(-c3ccc(O)cc3)nc3ccccc32)cc1,TGI,SR leukemia,> 31.6 µM
same,TGI,OVCAR-8 ovarian,> 100 µM
same,TGI,HOP-62 NSCLC,> 100 µM
same,TGI,UACC-257 melanoma,> 100 µM
same,TGI,PC-3 prostate,> 100 µM
same,TGI,A498 renal,> 100 µM
same,TGI,M14 melanoma,> 100 µM
same,TGI,MDA-MB-435,> 100 µM
same,TGI,NCI-H23 lung,> 100 µM
same,TGI,MALME-3M melanoma,> 100 µM
Cc1cn2c(/C=C3/C(=O)Nc4ccccc43)c(C)nc2s1,TGI,SR leukemia,47 µM
same,TGI,OVCAR-8 ovarian,> 100 µM
same,TGI,HOP-62 NSCLC,> 100 µM
same,TGI,UACC-257 melanoma,> 100 µM
same,TGI,PC-3 prostate,6.99 µM
same,TGI,A498 renal,> 100 µM
same,TGI,M14 melanoma,> 100 µM
same,TGI,MDA-MB-435,0.619 µM
same,TGI,NCI-H23 lung,> 100 µM
same,TGI,MALME-3M melanoma,> 100 µM
Cc1ccc(-n2cc(-c3ccc(Cl)cc3)c3c2N=CN2NC(c4cccs4)=NC32)cc1 (stereo not given),TGI,SR leukemia,> 100 µM
same,TGI,OVCAR-8 ovarian,21 µM
same,TGI,HOP-62 NSCLC,35.2 µM
same,TGI,UACC-257 melanoma,> 100 µM
same,TGI,PC-3 prostate,> 100 µM
same,TGI,A498 renal,35.9 µM
same,TGI,M14 melanoma,> 100 µM
same,TGI,MDA-MB-435,> 100 µM
same,TGI,NCI-H23 lung,52.3 µM
same,TGI,MALME-3M melanoma,> 100 µM
CC(C)(C)N=c1n(C(C)(C)C)oc(=O)n1-c1ccccc1,TGI,SR leukemia,> 50 µM
same,TGI,OVCAR-8 ovarian,> 50 µM
same,TGI,HOP-62 NSCLC,> 50 µM
same,TGI,UACC-257 melanoma,> 50 µM
same,TGI,PC-3 prostate,> 50 µM
same,TGI,A498 renal,> 50 µM
same,TGI,M14 melanoma,> 50 µM
same,TGI,MDA-MB-435,> 50 µM
same,TGI,NCI-H23 lung,> 50 µM
same,TGI,MALME-3M melanoma,> 50 µM
COC(=O)CCC1(O)C=CC(=O)C=C1,TGI,SR leukemia,> 100 µM
same,TGI,OVCAR-8 ovarian,> 100 µM
same,TGI,HOP-62 NSCLC,> 100 µM
same,TGI,UACC-257 melanoma,66.3 µM
same,TGI,PC-3 prostate,> 100 µM
same,TGI,A498 renal,> 100 µM
same,TGI,M14 melanoma,> 100 µM
same,TGI,MDA-MB-435,> 100 µM
same,TGI,NCI-H23 lung,97.4 µM
same,TGI,MALME-3M melanoma,50 µM
O=C(O)CO/N=C1/C(c2c(O)[nH]c3ccccc23)=Nc2ccccc21,TGI,SR leukemia,> 100 µM
same,TGI,OVCAR-8 ovarian,> 100 µM
same,TGI,HOP-62 NSCLC,> 100 µM
same,TGI,UACC-257 melanoma,> 100 µM
same,TGI,PC-3 prostate,> 100 µM
same,TGI,A498 renal,> 100 µM
same,TGI,M14 melanoma,> 100 µM
same,TGI,MDA-MB-435,> 100 µM
same,TGI,NCI-H23 lung,> 100 µM
same,TGI,MALME-3M melanoma,99.5 µM
COc1cccc(C(=O)N[C@@H]2[C@H](O)[C@@H](CO)O[C@H]2n2cnc3c(N)ncnc32)c1,TGI,SR leukemia,> 100 µM
same,TGI,OVCAR-8 ovarian,> 100 µM
same,TGI,HOP-62 NSCLC,> 100 µM
same,TGI,UACC-257 melanoma,> 100 µM
same,TGI,PC-3 prostate,> 100 µM
same,TGI,A498 renal,> 100 µM
same,TGI,M14 melanoma,> 100 µM
same,TGI,MDA-MB-435,> 100 µM
same,TGI,NCI-H23 lung,> 100 µM
same,TGI,MALME-3M melanoma,> 100 µM
CC(=O)/C(=C(/Br)I)c1ccccc1,TGI,SR leukemia,13.5 µM
same,TGI,OVCAR-8 ovarian,28.1 µM
same,TGI,HOP-62 NSCLC,29.7 µM
same,TGI,UACC-257 melanoma,25.4 µM
same,TGI,PC-3 prostate,32.2 µM
same,TGI,A498 renal,28.5 µM
same,TGI,M14 melanoma,21.3 µM
same,TGI,MDA-MB-435,11.9 µM
same,TGI,NCI-H23 lung,16.8 µM
same,TGI,MALME-3M melanoma,23.1 µM
COC(=O)C1(C)OC(C)=NC1(C(=O)OC)C(=O)OC (stereo not given),TGI,SR leukemia,> 100 µM
same,TGI,OVCAR-8 ovarian,> 100 µM
same,TGI,HOP-62 NSCLC,> 100 µM
same,TGI,UACC-257 melanoma,> 100 µM
same,TGI,PC-3 prostate,> 100 µM
same,TGI,A498 renal,> 100 µM
same,TGI,M14 melanoma,> 100 µM
same,TGI,MDA-MB-435,> 100 µM
same,TGI,NCI-H23 lung,> 100 µM
same,TGI,MALME-3M melanoma,> 100 µM
C#CC(O)Cc1ccc(OC)c2occc12 (stereo not given),TGI,SR leukemia,> 100 µM
same,TGI,OVCAR-8 ovarian,> 100 µM
same,TGI,HOP-62 NSCLC,> 100 µM
same,TGI,UACC-257 melanoma,> 100 µM
same,TGI,PC-3 prostate,> 100 µM
same,TGI,A498 renal,> 100 µM
same,TGI,M14 melanoma,> 100 µM
same,TGI,MDA-MB-435,> 100 µM
same,TGI,NCI-H23 lung,> 100 µM
same,TGI,MALME-3M melanoma,> 100 µM
COc1ccccc1N1C(=O)CC(=O)N(C(=O)CCCCCCCCC(=O)N2C(=O)CC(=O)N(c3ccccc3OC)C2=S)C1=S,TGI,SR leukemia,> 100 µM
same,TGI,OVCAR-8 ovarian,> 100 µM
same,TGI,HOP-62 NSCLC,> 100 µM
same,TGI,UACC-257 melanoma,> 100 µM
same,TGI,PC-3 prostate,> 100 µM
same,TGI,A498 renal,> 100 µM
same,TGI,M14 melanoma,> 100 µM
same,TGI,MDA-MB-435,> 100 µM
same,TGI,NCI-H23 lung,> 100 µM
same,TGI,MALME-3M melanoma,> 100 µM
COC(=O)C1=NN2c3ccccc3CN([C@@H](C)c3ccccc3)C(=O)[C@H]2[C@@H]1C,TGI,SR leukemia,> 100 µM
same,TGI,OVCAR-8 ovarian,> 100 µM
same,TGI,HOP-62 NSCLC,> 100 µM
same,TGI,UACC-257 melanoma,> 100 µM
same,TGI,PC-3 prostate,> 100 µM
same,TGI,A498 renal,> 100 µM
same,TGI,M14 melanoma,> 100 µM
same,TGI,MDA-MB-435,> 100 µM
same,TGI,NCI-H23 lung,> 100 µM
same,TGI,MALME-3M melanoma,> 100 µM
CCc1n[nH]c(=S)n1/N=C\c1ccc(-c2ccccc2[N+](=O)[O-])o1,TGI,SR leukemia,57.8 µM
same,TGI,OVCAR-8 ovarian,> 100 µM
same,TGI,HOP-62 NSCLC,> 100 µM
same,TGI,UACC-257 melanoma,> 100 µM
same,TGI,PC-3 prostate,> 100 µM
same,TGI,A498 renal,> 100 µM
same,TGI,M14 melanoma,> 100 µM
same,TGI,MDA-MB-435,39.4 µM
same,TGI,NCI-H23 lung,> 100 µM
same,TGI,MALME-3M melanoma,> 100 µM
CN1CCCC(C(=O)OCC(=O)C2(O)CCC3C4CCC5=CC(=O)CCC5(C)C4C(O)CC32C)C1 (stereo not given),TGI,SR leukemia,4.47 µM
same,TGI,OVCAR-8 ovarian,35.3 µM
same,TGI,HOP-62 NSCLC,31 µM
same,TGI,UACC-257 melanoma,38.2 µM
same,TGI,PC-3 prostate,30.7 µM
same,TGI,A498 renal,31.6 µM
same,TGI,M14 melanoma,59.3 µM
same,TGI,MDA-MB-435,33.4 µM
same,TGI,NCI-H23 lung,46.4 µM
same,TGI,MALME-3M melanoma,33.2 µM
CC(=O)NC1C(OCc2ccccc2)OC(CO)C(O)C1OCC(=O)N1CCCC1C(=O)NC(CCC(=O)NCCCCCNc1c2ccccc2nc2cccc([N+](=O)[O-])c12)C(N)=O (stereo not given),TGI,SR leukemia,5.01 µM
same,TGI,OVCAR-8 ovarian,0.0817 µM
same,TGI,HOP-62 NSCLC,0.125 µM
same,TGI,UACC-257 melanoma,0.327 µM
same,TGI,PC-3 prostate,0.0293 µM
same,TGI,A498 renal,0.345 µM
same,TGI,M14 melanoma,0.0591 µM
same,TGI,MDA-MB-435,0.033 µM
same,TGI,NCI-H23 lung,0.904 µM
same,TGI,MALME-3M melanoma,0.0425 µM
Cc1cc(-c2ccc(C(=O)C(c3ccccc3)(c3ccccc3)c3ccccc3)[nH]2)on1,TGI,SR leukemia,29.7 µM
same,TGI,OVCAR-8 ovarian,42 µM
same,TGI,HOP-62 NSCLC,53.5 µM
same,TGI,UACC-257 melanoma,> 100 µM
same,TGI,PC-3 prostate,49.1 µM
same,TGI,A498 renal,> 100 µM
same,TGI,M14 melanoma,71.8 µM
same,TGI,MDA-MB-435,67.7 µM
same,TGI,NCI-H23 lung,32.4 µM
same,TGI,MALME-3M melanoma,> 100 µM
NCCC1([N+](=O)[O-])CCNCC1,TGI,SR leukemia,> 100 µM
same,TGI,OVCAR-8 ovarian,> 100 µM
same,TGI,HOP-62 NSCLC,> 100 µM
same,TGI,UACC-257 melanoma,> 100 µM
same,TGI,PC-3 prostate,> 100 µM
same,TGI,A498 renal,> 100 µM
same,TGI,M14 melanoma,> 100 µM
same,TGI,MDA-MB-435,> 100 µM
same,TGI,NCI-H23 lung,> 100 µM
same,TGI,MALME-3M melanoma,> 100 µM
Nc1cc(N)c(N=Nc2cccc3c(S(=O)(=O)O)cccc23)cc1N=Nc1cc([N+](=O)[O-])ccc1O,TGI,SR leukemia,72.6 µM
same,TGI,OVCAR-8 ovarian,> 100 µM
same,TGI,HOP-62 NSCLC,> 100 µM
same,TGI,UACC-257 melanoma,74.5 µM
same,TGI,PC-3 prostate,> 100 µM
same,TGI,A498 renal,> 100 µM
same,TGI,M14 melanoma,> 100 µM
same,TGI,MDA-MB-435,> 100 µM
same,TGI,NCI-H23 lung,> 100 µM
same,TGI,MALME-3M melanoma,64 µM
